Data on 10 compounds can be found in patent US7772221B2, “Diaminopropane derived macrocycles as inhibitors of β amyloid production” (Bristol-Meyers Squibb Company, priority 2007, dated 2010).

For data set [1] the following is noted: rcm bond.
For data set [2] the following is noted: rcm bond, 1,2-dichloroethane, 60.0 °C.
The target of a further data set is T1, BACE1 enzyme (Homo sapiens, UniProt P56817).
T1 construct: endogenous in cells; washed 48,000 x g membrane pellet / cell homogenate
The data set can be described thus: Radioligand displacement assay with a radiolabeled BACE inhibitor. In kind it is binding. As to conditions: HEK293-9B.A1 cell homogenate overexpressing BACE1, 1 nM radioligand, pH 5.0, 1.5 hr at 25° C.; read-out: Activity Rating (activity based on IC50 values). An excerpt: There are a number of methods by which inhibitors of the BACE enzyme can be identified experimentally. The enzyme can be obtained from membrane samples from natural tissues or cultured cells or can be expressed recombinantly in a host cell by well known methods of molecular biology. The whole enzyme or a portion thereof can be expressed, for example, in bacterial, insect or mammalian cells to obtain a catalytically active enzyme species. The enzymatic activity and/or ligand binding capability of the enzyme can be assessed within these membrane samples, or the enzyme can be purified to varying extents. As an illustrative example, the nucleic acid sequence encoding the pro and catalytic domains of human BACE can be appended on the 5′ end with an untranslated and signal sequence from the gene for acetylcholinesterase, and on the 3′ end with a sequence encoding a poly-histidine tag. This cDNA can then be expressed in Drosophila melanogaster S2 cells in which the signal and pro sequences of the transcribed/translated protein are removed by cellular proteases and the catalytic domain, appended by a C-terminal poly-histidine tag, is secreted out into the cellular medium. The enzyme can then be purified from the culture medium by nickel affinity chromatography by methods well known to those trained in the art [Mallender, W. et al., “Characterization of recombinant, soluble beta-secretase from an insect cell expression system.” Mol. Pharmacol. 2001, 59: 619-626]. Similar strategies for expressing and purifying various forms of BACE in bacterial, mammalian and other cell types would be known to one skilled in the art. A preferred method for determining the potency of a test compound in binding to the BACE enzyme is by monitoring the displacement of a suitable radioligand.
Radioligand displacement assays with a radiolabeled BACE inhibitor (WO 2004 013098, compound 3, where the methoxy group is substituted for C(^3H)3) were carried out using standard methods (Keen, M. (1999) in Receptor Binding Techniques (Walker, J. M. ed) p. 106 Humana Press, Totowa, N.J.). The HEK293-9B.A1 cell line, which overexpresses the BACE1 enzyme, was derived from HEK293 cells (Simmons, N. L. (1990) A cultured human renal epithelioid cell line responsive to vasoactive intestinal peptide. Exp. Physiol. 75:309-19.) by RAGE™ (Harrington, J. J. et al. (2001) Creation of genome-wide protein expression libraries using random activation of gene expression. Nat. Biotechnol. 19:440-5.; U.S. Pat. Nos. 6,410,266 and 6,361,972). T225 flask cultures of HEK293-9B.A1 were grown to 80% confluency in DMEM supplemented with 2 mM L-glutamine, 10 μg/mL penicillin, 10 μg/mL streptomycin, 3 μg/mL puromycin, 100 nM methotrexate, and 10% fetal bovine serum (Invitrogen, Carlsbad, Calif.), harvested, and resuspended at 2×10^8 cells per 10 mL of lysis buffer consisting of 50 mM HEPES pH 7.0 containing a protease inhibitor cocktail of AEBSF 104 μM, aprotinin 80 nM, leupeptin 2 μM, bestatin 4 μM, pepstatin A 1.5 μM, and E-64 1.4 μM (0.1% of protease inhibitor cocktail P8340, Sigma-Aldrich, St. Louis, Mo.) at 4° C. The resuspended cells were homogenized using a Polytron (Brinkman, Westbury, N.Y.) at setting 6 for 10 sec., then centrifuged at 48,000×g for 10 min. The resulting pellet was washed by repeating the resuspension, homogenization and centrifugation steps. The final pellet was resuspended in buffer at 4° C. to yield a total protein concentration of 5 mg/mL, then aliquots were frozen in liquid nitrogen for further storage at −70° C. Immediately before carrying out a binding assay, an aliquot of cell homogenate was thawed and diluted to a concentration of 100 μg/mL in assay buffer consisting of 50 mM HEPES pH 5.0 and 0.1% CHAPSO. […]
On the technique in general: Displacement assays read how much labelled ligand stays bound in the presence of the test substance.

Read-outs that look alike come from different tables or passages of the source.

T1 sequence (P56817 46-501): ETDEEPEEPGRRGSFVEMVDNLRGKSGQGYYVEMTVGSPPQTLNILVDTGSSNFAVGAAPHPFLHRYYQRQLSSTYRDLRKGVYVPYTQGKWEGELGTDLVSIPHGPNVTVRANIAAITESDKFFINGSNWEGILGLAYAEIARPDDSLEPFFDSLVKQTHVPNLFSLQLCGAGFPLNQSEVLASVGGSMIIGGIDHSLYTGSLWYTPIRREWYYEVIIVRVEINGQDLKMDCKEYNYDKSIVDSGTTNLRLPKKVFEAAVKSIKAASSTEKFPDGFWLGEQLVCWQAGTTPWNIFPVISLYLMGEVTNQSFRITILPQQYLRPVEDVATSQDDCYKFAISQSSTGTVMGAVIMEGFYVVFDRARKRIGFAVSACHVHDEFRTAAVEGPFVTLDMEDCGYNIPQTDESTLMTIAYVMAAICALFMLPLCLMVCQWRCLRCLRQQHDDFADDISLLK

Take `CCCC(CCC)C(=O)N(C)[C@H]1CC=CCO[C@@H]2C[C@H](NC[C@@H](O)[C@H](Cc3ccccc3)NC1=O)c1cc(OC)ccc12`: the ring closure, yield after HPLC in data set [1] (from C=CCO[C@@H]1C[C@H](NC[C@@H](O)[C@H](Cc2ccccc2)NC(=O)[C@H](CC=C)N(C)C(=O)C(CCC)CCC)c2cc(OC)ccc21, 15-membered ring, Hoveyda-Grubbs II (9 mol%), DCM, 25.0 °C, 16.0 h) amounted to 34%. The compound `CCCCCS(=O)(=O)N(C)[C@H]1CC=CCCCc2ccc(C)cc2CNC[C@@H](O)[C@H](Cc2cc(F)cc(F)c2)NC1=O` gave a ring closure, isolated yield in data set [2] (from (S)-N-((2S,3R)-1-(3,5-difluorophenyl)-3-hydroxy-4-(5-methyl-2-(pent-4-enyl)benzylamino)butan-2-yl)-2-(N-methylpentylsulfonamido) pent-4-enamide, 16-membered ring, Hoveyda-Grubbs (20 mol%), 6.3 mM) of 18%. `CCCOc1ccc2c(c1)[C@@H]1C[C@H]2OCC=CCCCC(=O)N[C@@H](Cc2cc(F)cc(F)c2)[C@H](O)CN1` gave a ring closure, yield after HPLC in data set [1] (from C=CCCCC(=O)N[C@@H](Cc1cc(F)cc(F)c1)[C@H](O)CN[C@H]1C[C@@H](OCC=C)c2ccc(OCCC)cc21, 16-membered ring, Hoveyda-Grubbs II, DCM, 25.0 °C, 16.0 h) of 20%. In data set [1] (from C=CCCN(C(=O)OCc1ccccc1)C1C[C@H](NC[C@@H](O)[C@H](Cc2ccccc2)NC(=O)[C@H](CC=C)N(C)C(C)=O)c2cc(OC)ccc21, 16-membered ring), `COc1ccc2c(c1)[C@@H]1CC2N(C(=O)OCc2ccccc2)CCC=CC[C@H](N(C)C(C)=O)C(=O)N[C@@H](Cc2ccccc2)[C@H](O)CN1` showed a ring closure, yield after HPLC of 83%. A word on the IC50: it is the concentration that gives 50% inhibition. Turning to `CCCCCS(=O)(=O)N(C)[C@H]1CC=CCCCc2ccc(C(F)(F)F)cc2CNC[C@@H](O)[C@H](Cc2cc(F)cc(F)c2)NC1=O` [Example 40, N-((4R,5S,8S)-5-(3,5-difluorobenzyl)-4-hydroxy-17-(trifluoromethyl)-7-oxo-1,2,3,4,5,6,7,8,9,12,13,14-dodecahydrobenzo[g][1,5]diazacyclohexadecin-8-yl)-N-methylpentane-1-sulfonamide], the ring closure, isolated yield in data set [2] (from C=CCCCc1ccc(C(F)(F)F)cc1CNC[C@@H](O)[C@H](Cc1cc(F)cc(F)c1)NC(=O)[C@H](CC=C)N(C)S(=O)(=O)CCCCC, 16-membered ring, Hoveyda-Grubbs (19 mol%), 6.5 mM, 16.0 h) turned out to be 32%. For the same compound, the IC50 at BACE1 enzyme lay in the range of 10 to 500 nM. With `CC(C)C[C@@H]1COCC=CCC[C@H](N(C)S(=O)(=O)CCC(F)(F)F)C(=O)N[C@@H](Cc2cc(F)cc(F)c2)[C@H](O)CN1` [Example 42, N-((3R,6R,7S,10S)-7-(3,5-difluorobenzyl)-6-hydroxy-3-isobutyl-9-oxo-1-oxa-4,8-diazacyclopentadec-13-en-10-yl)-3,3,3-trifluoro-N-methylpropane-1-sulfonamide], the ring closure, isolated yield in data set [2] (from C=CCC[C@@H](C(=O)N[C@@H](Cc1cc(F)cc(F)c1)[C@H](O)CN[C@@H](COCC=C)CC(C)C)N(C)S(=O)(=O)CCC(F)(F)F, 15-membered ring, Hoveyda-Grubbs (16 mol%), 19.0 mM, 16.0 h) came out at 19%. Moreover, the IC50 at BACE1 enzyme was > 500 nM. As for `CCCC[C@H](C)C(=O)N(C)[C@H]1CC=CCOc2ccc(OC)cc2CNC[C@@H](O)[C@H](Cc2ccccc2)NC1=O` [Example 59, (S)-N-((6S,9S,10R)-9-benzyl-10-hydroxy-15-methoxy-7-oxo-2,5,6,7,8,9,10,11,12,13-decahydrobenzo[b][1,5,9]oxadiazacyclopentadecin-6-yl)-N,2-dimethylhexanamide], in data set [1] (from C=CCOc1ccc(OC)cc1CNC[C@@H](O)[C@H](Cc1ccccc1)NC(=O)[C@H](CC=C)N(C)C(=O)[C@@H](C)CCCC, 15-membered ring, Hoveyda-Grubbs II (21 mol%), DCM, 4.3 mM, 40.0 °C, 4.0 h), the ring closure, yield after HPLC came out at 49%. In addition, the IC50 at BACE1 enzyme was > 500 nM. For the compound `O=C1CCCC=CCO[C@@H]2C[C@H](NC[C@@H](O)[C@H](Cc3cc(F)cc(F)c3)N1)c1cc(-c3cc(C(F)(F)F)cc(C(F)(F)F)c3)ccc12` [Example 91, (1S,4R,5S,15R)-19-(3,5-bis-trifluoromethyl-phenyl)-5-(3,5-difluoro-benzyl)-4-hydroxy-14-oxa-2,6-diaza-tricyclo[13.6.1.0^16,21]docosa-11,16(21),17,19-tetraen-7-one], the IC50 on BACE1 enzyme is > 500 nM. Still for that read-out and setting: as for `CC(C)(C)OC(=O)N1CC2CN(c3ccc4c(c3)[C@@H]3C[C@H]4OCC=CCCCC(=O)N[C@@H](Cc4cc(F)cc(F)c4)[C@H](O)CN3)CC2C1` (stereo partly drawn) [Example 96, 5-[(1S,4R,5S,15R)-5-(3,5-difluoro-benzyl)-4-hydroxy-7-oxo-14-oxa-2,6-diaza-tricyclo[13.6.1.0^16,21]docosa-11,16(21),17,19-tetraen-19-yl]-hexahydro-pyrrolo[3,4-c]pyrrole-2-carboxylic acid tert-butyl ester], the figure is 10 to 500 nM; as for `CCCC[C@H](C)C(=O)N(C)[C@H]1CC=CCO[C@@H]2C[C@H](NC[C@@H](O)[C@H](Cc3ccccc3)NC1=O)c1cc(C)cc(C)c12` [Example 100, (S)-2-methyl-hexanoic acid ((1S,4R,5S,8S,14R)-5-benzyl-4-hydroxy-16,18-dimethyl-7-oxo-13-oxa-2,6-diaza-tricyclo[12.6.1.0^15,20]henicosa-10,15(20),16,18-tetraen-8-yl)-methyl-amide], < 10 nM.
